What was measured:
[1] = system: TRZAWR (Wheat, Winter, cv Riband); experiment: Preemergence herbicidal evaluation; type: in vivo, Triticum aestivum; conditions: preemergence, rated 4-5 weeks after treatment
Summary of the method: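 Steps: mix seeds with potting soil; plant on ~1 inch soil per cup; spray compound in aqueous acetone; hold on greenhouse benches with routine watering; rate 0–9 visually against control at 4–5 weeks.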

ZEAMX (Corn, Field) [2] = experiment: Preemergence herbicidal evaluation; type: in vivo, Zea mays, L.; conditions: preemergence, rated 4-5 weeks after treatment
[3] = system: ABUTH (Abutilon theophrasti); experiment: Preemergence herbicidal evaluation; type: in vivo, Medic.; conditions: preemergence, rated 4-5 weeks after treatment
[4] = system: MOOVA (Monochoria vaginalis); experiment: Flooded paddy, postemergence weed control; type: in vivo, Presl.; conditions: postemergence weeds, rated 3-4 weeks after treatment
Excerpt: (§1) Results of herbicide evaluation are expressed on a rating scale (0-9). The scale is based upon a visual observation of plant stand, vigor, malformation, size, chlorosis and overall plant appearance as compared with a control.
(§2) Plastic containers containing weeds which are 3 to 5 cm tall and rice seedlings at the 1.5 to 2.5 leaf stage are flooded with water. The water is maintained at 1.5 to 3 cm above the soil surface for the duration of the experiment. Test compounds are applied as aqueous/acetone mixtures 50/50 v/v directly into the flood water to provide the equivalent of about 0.0320 to 0.2500 kg/ha of active ingredient. The treated containers are placed on greenhouse benches and cared for in accordance with conventional greenhouse procedures. Three to four weeks after treatment, the test is terminated and each container is examined and herbicidal effect rated according to the rating system provided in Example 87. The compounds evaluated are identified in Example 87 and plant species used are identified in Example 89.

[5] = system: ECHORC (Echinochloa oryzoides); experiment: Flooded paddy, preemergence weed control; type: in vivo, Echinochloa oryzoides (Ard.) Fritsch.; conditions: rated 3-4 weeks after treatment, 0-9 rating scale
Summary of the method: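 Silt loam, sowing depth ≤0.5 cm; permanent flood 1.5–3 cm above soil; greenhouse culture after treatment. Readout: 0-9 visual scale (stand, vigor, malformation, size, chlorosis, appearance) vs control.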

ORYSAT (Rice, Tebonnet) [6] = experiment: Flooded paddy, post-transplant and postemergence rice tolerance; type: in vivo, Oryza sativa, (L.) Tebonnet; conditions: post-transplant rice, rated 3-4 weeks after treatment
Excerpt: as §1, §2

ORYSAT (Rice, Tebonnet) [7] = experiment: Flooded paddy, post-transplant rice tolerance; type: in vivo, Oryza sativa, (L.) Tebonnet; conditions: flooded paddy, post-transplant rice, rated 3-4 weeks after treatment, 0-9 rating scale
Summary of the method: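 Steps: transplant two ten-day-old seedlings into silt loam; flood to 1.5-3 cm above soil; apply herbicide post-transplant; maintain water on greenhouse benches; rate stand, vigor, malformation, size and chlorosis on a 0-9 visual scale versus control.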

[8] = system: IPOHE (Ipomoea hederacea); experiment: Preemergence herbicidal evaluation; type: in vivo, (L.) Jacq.; conditions: preemergence, rated 4-5 weeks after treatment
[9] = system: GLXMAW (Soybean, Williams); experiment: Postemergence herbicidal evaluation; type: in vivo, Glycine max, (L.) Merr. cv Williams
Summary of the method: (§3)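 Visual 0–9 injury scores versus control plants, covering stand, vigour, malformation, size, chlorosis and general appearance, taken four to five weeks post-spray and averaged over replicate tests. Plants were sprayed at roughly two weeks old and held on greenhouse benches.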

[10] = system: ECHCG (Echinochloa crus-galli); experiment: Postemergence herbicidal evaluation; type: in vivo, (L.) Beau
Summary of the method: as §3

[11] = system: ECHORC (Echinochloa oryzoides); experiment: Flooded paddy, postemergence weed control; type: in vivo, Echinochloa oryzoides (Ard.) Fritsch.; conditions: postemergence weeds, rated 3-4 weeks after treatment
Excerpt: as §1, §2

CYPIR (Cyperus iria) = experiment: Flooded paddy, postemergence weed control; type: in vivo; conditions: postemergence weeds, rated 3-4 weeks after treatment
Excerpt: as §1, §2

[12] = system: SAGPY (Sagittaria pygmaea); experiment: Flooded paddy, postemergence weed control; type: in vivo, L.; conditions: postemergence weeds, rated 3-4 weeks after treatment
Excerpt: as §1, §2

ZEAMX (Corn, Field) [13] = experiment: Postemergence herbicidal evaluation; type: in vivo, Zea mays, L.
Summary of the method: as §3

[14] = system: GLXMAW (Soybean, Williams); experiment: Preemergence herbicidal evaluation; type: in vivo, Glycine max, (L.) Merr. cv Williams; conditions: preemergence, rated 4-5 weeks after treatment
[15] = system: CYPSE (Cyperus serotinus); experiment: Flooded paddy, postemergence weed control; type: in vivo, Rottb.; conditions: postemergence weeds, rated 3-4 weeks after treatment
Excerpt: as §1, §2

Cn1c(C(F)(F)F)cc(=O)n(-c2ccc3snc(-c4ccsc4)c3c2)c1=O [Compound 1, 1-methyl-3-[3-(3-thienyl)-1,2-benzisothiazol-5-yl]-6-(trifluoromethyl)uracil]
TRZAWR preemergence herbicidal rating ([1]; Rate 0.0620 kg/ha): 3.5 | TRZAWR preemergence herbicidal rating ([1]; Rate 0.1250 kg/ha): 4.0 | TRZAWR preemergence herbicidal rating ([1]; Rate 0.2500 kg/ha): 5.0 | ZEAMX preemergence herbicidal rating (ZEAMX (Corn, Field) [2]; Rate 0.0620 kg/ha): 6.0 | ZEAMX preemergence herbicidal rating (ZEAMX (Corn, Field) [2]; Rate 0.1250 kg/ha): 6.7 | ZEAMX preemergence herbicidal rating (ZEAMX (Corn, Field) [2]; Rate 0.2500 kg/ha): 7.0 | ABUTH preemergence herbicidal rating ([3]; Rate 0.0620 kg/ha): 9.0 | ABUTH preemergence herbicidal rating ([3]; Rate 0.1250 kg/ha): 9.0 | ABUTH preemergence herbicidal rating ([3]; Rate 0.2500 kg/ha): 9.0 | herbicide rating (0-9) MOOVA ([4]; 0.0320 kg/ha into flood water): 9.0 | herbicide rating (0-9) MOOVA ([4]; 0.0620 kg/ha into flood water): 9.0 | herbicide rating (0-9) MOOVA ([4]; 0.1250 kg/ha into flood water): 9.0 | herbicidal rating, ECHORC ([5]; rate 0.0080 kg/ha): 6.0 | herbicidal rating, ECHORC ([5]; rate 0.0320 kg/ha): 9.0 | herbicidal rating, ECHORC ([5]; rate 0.1250 kg/ha): 9.0 | herbicide rating (0-9) ORYSAT (rice tolerance) (ORYSAT (Rice, Tebonnet) [6]; 0.0320 kg/ha into flood water): 7.0 | herbicide rating (0-9) ORYSAT (rice tolerance) (ORYSAT (Rice, Tebonnet) [6]; 0.0620 kg/ha into flood water): 7.0 | herbicide rating (0-9) ORYSAT (rice tolerance) (ORYSAT (Rice, Tebonnet) [6]; 0.1250 kg/ha into flood water): 7.0 | herbicidal rating, ORYSAT (rice tolerance) (ORYSAT (Rice, Tebonnet) [7]; rate 0.0080 kg/ha): 4.0 | herbicidal rating, ORYSAT (rice tolerance) (ORYSAT (Rice, Tebonnet) [7]; rate 0.0320 kg/ha): 5.5 | herbicidal rating, ORYSAT (rice tolerance) (ORYSAT (Rice, Tebonnet) [7]; rate 0.1250 kg/ha): 7.0 | IPOHE preemergence herbicidal rating ([8]; Rate 0.0620 kg/ha): 8.0 | IPOHE preemergence herbicidal rating ([8]; Rate 0.1250 kg/ha): 9.0 | IPOHE preemergence herbicidal rating ([8]; Rate 0.2500 kg/ha): 9.0 | Postemergence herbicidal rating, GLXMAW ([9]; rate 0.0320 kg/ha): 6.8 | Postemergence herbicidal rating, GLXMAW ([9]; rate 0.0620 kg/ha): 7.0 | Postemergence herbicidal rating, GLXMAW ([9]; rate 0.1250 kg/ha): 7.8 | Postemergence herbicidal rating, ECHCG ([10]; rate 0.0320 kg/ha): 2.0 | Postemergence herbicidal rating, ECHCG ([10]; rate 0.0620 kg/ha): 2.5 | Postemergence herbicidal rating, ECHCG ([10]; rate 0.1250 kg/ha): 4.0 | herbicide rating (0-9) ECHORC ([11]; 0.0320 kg/ha into flood water): 9.0 | herbicide rating (0-9) ECHORC ([11]; 0.0620 kg/ha into flood water): 9.0 | herbicide rating (0-9) ECHORC ([11]; 0.1250 kg/ha into flood water): 9.0 | herbicide rating (0-9) CYPIR (CYPIR (Cyperus iria); 0.0320 kg/ha into flood water): 9.0 | herbicide rating (0-9) CYPIR (CYPIR (Cyperus iria); 0.0620 kg/ha into flood water): 9.0 | herbicide rating (0-9) CYPIR (CYPIR (Cyperus iria); 0.1250 kg/ha into flood water): 9.0 | herbicide rating (0-9) SAGPY ([12]; 0.0320 kg/ha into flood water): 4.0 | herbicide rating (0-9) SAGPY ([12]; 0.0620 kg/ha into flood water): 7.0 | herbicide rating (0-9) SAGPY ([12]; 0.1250 kg/ha into flood water): 9.0 | Postemergence herbicidal rating, ZEAMX (ZEAMX (Corn, Field) [13]; rate 0.0320 kg/ha): 5.5 | Postemergence herbicidal rating, ZEAMX (ZEAMX (Corn, Field) [13]; rate 0.0620 kg/ha): 5.8 | Postemergence herbicidal rating, ZEAMX (ZEAMX (Corn, Field) [13]; rate 0.1250 kg/ha): 6.0 | GLXMAW preemergence herbicidal rating ([14]; Rate 0.0620 kg/ha): 7.0 | GLXMAW preemergence herbicidal rating ([14]; Rate 0.1250 kg/ha): 9.0 | GLXMAW preemergence herbicidal rating ([14]; Rate 0.2500 kg/ha): 9.0 | herbicide rating (0-9) CYPSE ([15]; 0.0320 kg/ha into flood water): 2.0 | herbicide rating (0-9) CYPSE ([15]; 0.0620 kg/ha into flood water): 4.0 | herbicide rating (0-9) CYPSE ([15]; 0.1250 kg/ha into flood water): 7.0

From US6706663B2, “Herbicidal 3-heterocyclic substituted benzisothiazole and benzisoxazole compounds” (Wyeth, priority 2000, dated 2004)
